According to US10280163B2 (BeiGene, Ltd., priority 2015, dated 2019):
Read-outs that look alike come from different tables or passages of the source.

What was measured:
[1] = target: T1, cellular IDO1 in HeLa cells (Homo sapiens, UniProt P14902); assay: HeLa cell-based IDO1 Kyn (kynurenine) production assay; details: IFN-γ 100 ng/mL, 48 hours
T1 construct: endogenous in cells; host or cells: HeLa cells (American Type Tissue Culture Collection), induced with human recombinant IFN-γ
How it was run: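 IFN-γ-induced HeLa cells (100 ng/mL) in phenol red-free DMEM with 0.4 mM L-Trp, compounds added together with IFN-γ, 48 h at 37 °C. Supernatant Kyn read at 480 nm after TCA precipitation and 4-(dimethylamino)benzaldehyde reaction. IC50 from four-parameter logistic fit.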

Recombinant IDO1 = target: T2, Recombinant IDO1 (Homo sapiens, UniProt P14902); assay: IDO1 enzymatic assay; assay type: biochemical
T2 construct: His tag (N); made in house; host or cells: E. coli
T2 sequence (P14902 whole entry): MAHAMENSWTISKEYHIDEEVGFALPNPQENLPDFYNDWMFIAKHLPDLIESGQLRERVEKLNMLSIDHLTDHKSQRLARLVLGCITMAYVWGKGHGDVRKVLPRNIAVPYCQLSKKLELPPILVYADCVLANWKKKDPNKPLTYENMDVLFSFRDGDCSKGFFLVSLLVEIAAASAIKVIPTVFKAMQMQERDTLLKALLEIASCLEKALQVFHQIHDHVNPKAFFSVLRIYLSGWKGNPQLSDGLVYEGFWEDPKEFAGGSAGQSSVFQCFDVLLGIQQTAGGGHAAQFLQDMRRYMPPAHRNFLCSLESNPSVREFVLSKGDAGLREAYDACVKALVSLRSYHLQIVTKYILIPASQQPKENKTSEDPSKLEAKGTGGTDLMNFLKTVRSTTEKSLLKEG
How it was run: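 N-terminally His-tagged enzyme from E. coli (50 nM) was incubated with compound, 1.3 mM D-tryptophan, 5 mM ascorbate, 6.25 μM methylene blue and 0.4 mg/mL catalase in 50 mM potassium phosphate pH 7.5, 0.1% BSA for 1.5 h at 24° C. N′-formylkynurenine formation was followed at 321 nm for 1 h; IC50 from rate slopes.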

Recombinant TDO = target: T3, Recombinant TDO (Homo sapiens, UniProt P48775); assay: TDO enzymatic assay; assay type: biochemical
T3 construct: His tag (C); made in house; host or cells: E. coli
T3 sequence (P48775 whole entry): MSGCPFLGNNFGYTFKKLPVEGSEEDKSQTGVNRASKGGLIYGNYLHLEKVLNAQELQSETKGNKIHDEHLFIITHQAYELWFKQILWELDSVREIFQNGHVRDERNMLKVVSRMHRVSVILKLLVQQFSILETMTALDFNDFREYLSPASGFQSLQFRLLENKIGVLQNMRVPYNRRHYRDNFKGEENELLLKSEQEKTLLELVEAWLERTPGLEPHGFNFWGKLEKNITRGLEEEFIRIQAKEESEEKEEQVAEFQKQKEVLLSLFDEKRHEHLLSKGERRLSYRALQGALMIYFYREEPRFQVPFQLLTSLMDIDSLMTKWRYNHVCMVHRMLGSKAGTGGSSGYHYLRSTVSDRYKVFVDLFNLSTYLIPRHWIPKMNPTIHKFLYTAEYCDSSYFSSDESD
Description: Recombinant TDO was overexpressed and purified from E. coli cells with a C-terminal His tag. TDO enzymatic assay was performed using the same methodology as IDO1 enzymatic assay except that 100 nM TDO and 0.5 mM L-tryptophan (Km concentration) were used in the TDO assay.

[2] = Table 1, 5-substituted imidazo[1,5-a]pyridines
[3] = Table 1, 5-substituted imidazo[1,5-a]pyridines, 50 nM IDO1, 1.3 mM D-tryptophan, read-out: Enzyme IC50 (nM) IDO1
[4] = Table 1, 5-substituted imidazo[1,5-a]pyridines, 100 nM TDO, 0.5 mM L-tryptophan, read-out: Enzyme IC50 (nM) TDO
[5] = Table 2, 8-substituted imidazo[1,5-a]pyridines
[6] = Table 2, 8-substituted imidazo[1,5-a]pyridines, 50 nM IDO1, 1.3 mM D-tryptophan, read-out: Enzyme IC50 (nM) IDO1
[7] = Table 2, 8-substituted imidazo[1,5-a]pyridines, 100 nM TDO, 0.5 mM L-tryptophan, read-out: Enzyme IC50 (nM) TDO

T1 sequence (P14902 whole entry): as the sequence (P14902 whole entry) above

EC50 [1, 2]	IC50 (Recombinant IDO1; [3])	IC50 (Recombinant TDO; [4])	EC50 [1, 5]	IC50 (Recombinant IDO1; [6])	IC50 (Recombinant TDO; [7])	IC50 (Recombinant IDO1; selectivity examples, read-out: enzymatic IC50 value to IDO1)	IC50 (Recombinant TDO; selectivity examples, read-out: enzymatic IC50 value to TDO)	Compound
			> 10000 nM	1000 nM	630 nM			OC(c1cccn2cncc12)C1CCCCC1 (stereo not drawn) [Example B001, Cyclohexyl(imidazo[1,5-a]pyridin-8-yl)methanol]
			> 10000 nM	330 nM	3300 nM			OC(CC1CCCCC1)c1cccn2cncc12 (stereo not drawn) [Example B006, 2-Cyclohexyl-1-(imidazo[1,5-a]pyridin-8-yl)ethan-1-ol]
			> 10000 nM	620 nM	17000 nM			OC(CCC1CCCCC1)c1cccn2cncc12 (stereo not drawn) [Example B008, 3-cyclohexyl-1-(imidazo[1,5-a]pyridin-8-yl)propan-1-ol]
			> 10000 nM	170 nM	190 nM			Cc1cc(C(O)C2CCCCC2)c2cncn2c1 (stereo not drawn) [Example B011, Cyclohexyl (6-methylimidazo[1,5-a]pyridin-8-yl)methanol]
			> 10000 nM	130 nM	130 nM			Cc1cc(C(O)CC2CCCCC2)c2cncn2c1 (stereo not drawn) [Example B012, 2-Cyclohexyl-1-(6-methylimidazo[1,5-a]pyridin-8-yl)ethanol]
			> 10000 nM	240 nM	190 nM			OC(CC1CCCCC1)c1cc(Cl)cn2cncc12 (stereo not drawn) [Example B013, 1-(6-Chloroimidazo[1,5-a]pyridin-8-yl)-2-cyclohexylethan-1-ol]
			> 10000 nM	180 nM	100 nM			OC(c1cc(Cl)cn2cncc12)C1CCCCC1 (stereo not drawn) [Example B014, (6-Chloroimidazo[1,5-a]pyridin-8-yl)(cyclohexyl)methanol]
			439 nM	14 nM	1000 nM			Cc1ccn2cncc2c1C(O)CC1CCCCC1 (stereo not drawn) [Example B101, 2-cyclohexyl-1-(7-methylimidazo[1,5-a]pyridin-8-yl)ethan-1-ol]
			1560 nM	23 nM	360 nM			Cc1ccn2cncc2c1C(O)C1CCCCC1 (stereo not drawn) [Example B102, cyclohexyl(7-methylimidazo[1,5-a]pyridin-8-yl)methanol]
			575 nM	69 nM	8000 nM			OC(c1c(I)ccn2cncc12)C1CCCCC1 (stereo not drawn) [Example B103, cyclohexyl(7-iodoimidazo[1,5-a]pyridin-8-yl)methanol]
			2930 nM	38 nM	940 nM			OC(c1c(Cl)ccn2cncc12)C1CCCCC1 (stereo not drawn) [Example B104, (7-chloroimidazo[1,5-a]pyridin-8-yl)(cyclohexyl)methanol]
			876 nM			33 nM	4900 nM	OC(CC1CCCCC1)c1c(Cl)ccn2cncc12 (stereo not drawn) [Example B105, 1-(7-chloroimidazo[1,5-a]pyridin-8-yl)-2-cyclohexylethan-1-ol]
			457 nM	138 nM	1200 nM			CC(C)c1ccn2cncc2c1C(O)C1CCCCC1 (stereo not drawn) [Example B106, Cyclohexyl (7-isopropylimidazo[1,5-a]pyridin-8-yl)methanol]
			256 nM	48 nM	850 nM			OC(c1c(C2CC2)ccn2cncc12)C1CCCCC1 (stereo not drawn) [Example B107, Cyclohexyl (7-cyclopropylimidazo[1,5-a]pyridin-8-yl)methanol]
			389 nM	59 nM	560 nM			CC(C)c1ccn2cncc2c1C(O)CC1CCCCC1 (stereo not drawn) [Example B108, 2-Cyclohexyl-1-(7-isopropylimidazo[1,5-a]pyridin-8-yl)ethan-1-ol]
			940 nM	35 nM	4600 nM			OC(c1c(C2CC2)ccn2cncc12)C1CCCC1 (stereo not drawn) [Example B109]
			259 nM	53 nM	1000 nM			OC(CC1CCCCC1)c1c(C2CC2)ccn2cncc12 (stereo not drawn) [Example B110]

More lines, now with the values behind:

Compound	EC50 [1, 2]	IC50 (Recombinant IDO1; [3])	IC50 (Recombinant TDO; [4])	EC50 [1, 5]	IC50 (Recombinant IDO1; [6])	IC50 (Recombinant TDO; [7])	IC50 (Recombinant IDO1; selectivity examples, read-out: enzymatic IC50 value to IDO1)	IC50 (Recombinant TDO; selectivity examples, read-out: enzymatic IC50 value to TDO)
OC1CCCCC1C(O)c1c(C2CC2)ccc2cncn12 (stereo not drawn) [Example A141, 2-((6-cyclopropylimidazo[1,5-a]pyridin-5-yl)(hydroxy)methyl)cyclohexan-1-ol]	3150 nM	51 nM	3900 nM					
OC1CCC(C(O)c2c(C3CC3)ccc3cncn23)CC1 (stereo not drawn) [Example A142, 4-((6-cyclopropylimidazo[1,5-a]pyridin-5-yl)(hydroxy)methyl)cyclohexan-1-ol]	574 nM	130 nM	64000 nM					
OC(c1c(Cl)c(Cl)cc2cncn12)C1CCCCC1 (stereo not drawn) [Example A143, cyclohexyl(6,7-dichloroimidazo[1,5-a]pyridin-5-yl)methanol]	1110 nM	15 nM	270 nM					
OC(CC1CCCCC1)c1c(Cl)c(Cl)cc2cncn12 (stereo not drawn) [Example A144, 2-cyclohexyl-1-(6,7-dichloroimidazo[1,5-a]pyridin-5-yl)ethan-1-ol]	1240 nM	32 nM	1500 nM					
OC(c1cc(Cl)c(Cl)c2cncn12)C1CCCCC1 (stereo not drawn) [Example A146, cyclohexyl(7,8-dichloroimidazo[1,5-a]pyridin-5-yl)methanol]	1250 nM	28 nM	210 nM					
OC(c1c(Cl)c(Br)cc2cncn12)C1CCCCC1 (stereo not drawn) [Example A148, (7-bromo-6-chloroimidazo[1,5-a]pyridin-5-yl)(cyclohexyl)methanol]	1490 nM	39 nM	420 nM					
OC(c1c(Cl)c(Br)cc2cncn12)C1CCCC1 (stereo not drawn) [Example A149, (7-bromo-6-chloroimidazo[1,5-a]pyridin-5-yl)(cyclopentyl)methanol]	2060 nM	35 nM	160 nM					
OC(c1c(Cl)c(F)cc2cncn12)C1CCCCC1 (stereo not drawn) [Example A151, (6-chloro-7-fluoroimidazo[1,5-a]pyridin-5-yl)(cyclohexyl)methanol]	415 nM	39 nM	600 nM					
OC(CC1CCCCC1)c1c(Cl)c(F)cc2cncn12 (stereo not drawn) [Example A152, 1-(6-chloro-7-fluoroimidazo[1,5-a]pyridin-5-yl)-2-cyclohexylethan-1-ol]	202 nM	33 nM	7400 nM					
COc1cc(C(O)C2CCCCC2)n2cncc2c1Cl (stereo not drawn) [Example A153, (8-chloro-7-methoxyimidazo[1,5-a]pyridin-5-yl)(cyclohexyl)methanol]	6760 nM	500 nM	1800 nM					
OC(c1c(Cl)c(Cl)c(Cl)c2cncn12)C1CCCCC1 (stereo not drawn) [Example A154, cyclohexyl(6,7,8-trichloroimidazo[1,5-a]pyridin-5-yl)methanol]	657 nM	430 nM	8400 nM					
OC(c1c(F)c(Cl)cc2cncn12)C1CCCCC1 (stereo not drawn) [Example A156, (7-chloro-6-fluoroimidazo[1,5-a]pyridin-5-yl)(cyclohexyl)methanol]	1650 nM	48 nM	190 nM					
